This note sets out measurements from patent US8008291B2 (Mimetica Pty Ltd, priority 2008, dated 2011).

Molecules are shown by their SMILES. pIC50: −log10 of the molar value. Bounds are passed on as bounds.

The target of this assay is T1, human MC5R (hMC5R) (Homo sapiens, UniProt P33032).
T1 construct: purchased Perkin Elmer RBXMC5M400UA
T1 sequence (P33032 whole entry): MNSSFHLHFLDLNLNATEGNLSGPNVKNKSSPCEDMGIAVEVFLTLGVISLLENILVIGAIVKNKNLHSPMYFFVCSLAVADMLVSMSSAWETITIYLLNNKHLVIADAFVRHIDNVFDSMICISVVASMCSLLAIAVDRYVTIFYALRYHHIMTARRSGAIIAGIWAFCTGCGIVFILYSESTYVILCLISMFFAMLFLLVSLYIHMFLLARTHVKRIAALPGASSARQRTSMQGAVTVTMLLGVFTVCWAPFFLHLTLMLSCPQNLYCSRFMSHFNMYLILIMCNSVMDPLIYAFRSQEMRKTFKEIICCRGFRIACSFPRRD
Briefly: Human MC5R radioligand binding assay (membranes, [125I] NDP-MSH displacement). The note with it: hMC5R binding; tested as trifluoroacetate or hydrochloride salts, or free bases; read-out: MC5R radioligand IC50. The essentials: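 Displacement of [125I]NDP-MSH (radioiodinated in house, HPLC-purified) from hMC5R membranes by test compound measured after 1 hr incubation at 37° C.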
In the case of `O=C(NC[C@@H]1CCN(CC(c2ccccc2)c2ccccc2)C(=O)[C@H](CCN2CCCC2)N1)c1ccc2ccccc2c1` [Compound 367, N-(((3S,5S)-1-(2,2-diphenylethyl)-2-oxo-3-(2-(pyrrolidin-1-yl)ethyl)-1,4-diazepan-5-yl)methyl)-2-naphthamide], the pIC50 was above 7.00.

Take `O=C(NC[C@@H]1CCN(CC(c2ccccc2)c2ccccc2)C(=O)[C@H](CCN2CCCCC2)N1)c1ccc2ccccc2c1` [Compound 368, N-(((3S,5S)-1-(2,2-diphenylethyl)-2-oxo-3-(2-(piperidin-1-yl)ethyl)-1,4-diazepan-5-yl)methyl)-2-naphthamide]: the pIC50 was above 7.00.

Consider `CCC(CC)CN1CC[C@@H](CNC(=O)c2ccc3cc(F)ccc3c2)N[C@@H](CCN)C1=O` [Compound 369, N-(((3S,5S)-3-(2-aminoethyl)-1-(2-ethylbutyl)-2-oxo-1,4-diazepan-5-yl)methyl)-6-fluoro-2-naphthamide], for which the pIC50 is above 6.00.

Turning to `CCC(CC)CN1CC[C@@H](CNC(=O)c2ccc3cc(Cl)ccc3c2)N[C@@H](CCN)C1=O` [Compound 370, N-(((3S,5S)-3-(2-aminoethyl)-1-(2-ethylbutyl)-2-oxo-1,4-diazepan-5-yl)methyl)-6-chloro-2-naphthamide], the negative-log IC50 (pIC50) is above 6.00.

As to `CCC(CC)CN1CC[C@@H](CNC(=O)c2ccc3cc(Br)ccc3c2)N[C@@H](CCN)C1=O` [Compound 371, N-(((3S,5S)-3-(2-aminoethyl)-1-(2-ethylbutyl)-2-oxo-1,4-diazepan-5-yl)methyl)-6-bromo-2-naphthamide], the pIC50 was above 6.00.

As for `CCC(CC)CN1CC[C@@H](CNC(=O)c2ccc3cc(F)ccc3c2)N[C@@H](CCN2CCCCC2)C1=O` [Compound 372, N-(((3S,5S)-1-(2-ethylbutyl)-2-oxo-3-(2-(piperidin-1-yl)ethyl)-1,4-diazepan-5-yl)methyl)-6-fluoro-2-naphthamide], the negative logarithm of the IC50 (pIC50) is above 7.00.

Regarding `CCC(CC)CN1CC[C@@H](CNC(=O)c2ccc3cc(Cl)ccc3c2)N[C@@H](CCN2CCCCC2)C1=O` [Compound 373, 6-chloro-N-(((3S,5S)-1-(2-ethylbutyl)-2-oxo-3-(2-(piperidin-1-yl)ethyl)-1,4-diazepan-5-yl)methyl)-2-naphthamide], the negative-log IC50 (pIC50) is above 7.00.

For `CCC(CC)CN1CC[C@@H](CNC(=O)c2ccc3cc(Br)ccc3c2)N[C@@H](CCN2CCCCC2)C1=O` [Compound 374, 6-bromo-N-(((3S,5S)-1-(2-ethylbutyl)-2-oxo-3-(2-(piperidin-1-yl)ethyl)-1,4-diazepan-5-yl)methyl)-2-naphthamide], the pIC50 is above 7.00.

`CC1CC(C)CC(CN2CC[C@@H](CNC(=O)c3ccc(Cl)c(Cl)c3)N[C@@H](CCN)C2=O)C1` (stereo partly drawn) [Compound 375, N-(((3S,5S)-3-(2-aminoethyl)-1-((3,5-dimethylcyclohexyl)methyl)-2-oxo-1,4-diazepan-5-yl)methyl)-3,4-dichlorobenzamide]: the negative-log IC50 (pIC50) was above 6.00.

`CC1CC(C)CC(CN2CC[C@@H](CNC(=O)c3ccc4ccccc4c3)N[C@@H](CCN)C2=O)C1` (stereo partly drawn) [Compound 376, N-(((3S,5S)-3-(2-aminoethyl)-1-((3,5-dimethylcyclohexyl)methyl)-2-oxo-1,4-diazepan-5-yl)methyl)-2-naphthamide]: the pIC50 is above 6.00.

`CC1CC(C)CC(CN2CC[C@@H](CNC(=O)/C=C/c3ccc(Cl)cc3)N[C@@H](CCN)C2=O)C1` (stereo partly drawn) [Compound 377, (E)-N-(((3S,5S)-3-(2-aminoethyl)-1-((3,5-dimethylcyclohexyl)methyl)-2-oxo-1,4-diazepan-5-yl)methyl)-3-(4-chlorophenyl)acrylamide]: the pIC50 was above 6.00.

For `O=C(NC[C@@H]1CCN(CC(c2ccccc2)c2ccccc2)C(=O)[C@H](CCN2CCCCC2)N1)c1ccc2cc(Cl)ccc2c1` [Compound 378, 6-chloro-N-(((3S,5S)-1-(2,2-diphenylethyl)-2-oxo-3-(2-(piperidin-1-yl)ethyl)-1,4-diazepan-5-yl)methyl)-2-naphthamide], the pIC50 is above 8.00.

As for `O=C(NC[C@@H]1CCN(CC(c2ccccc2)c2ccccc2)C(=O)[C@H](CCN2CCCCC2)N1)c1ccc2cc(F)ccc2c1` [Compound 379, N-(((3S,5S)-1-(2,2-diphenylethyl)-2-oxo-3-(2-(piperidin-1-yl)ethyl)-1,4-diazepan-5-yl)methyl)-6-fluoro-2-naphthamide], the pIC50 was above 8.00.

As to `O=C(/C=C/c1ccc(Cl)cc1)NC[C@@H]1CCN(CC(c2ccccc2)c2ccccc2)C(=O)[C@H](CCN2CCCC2)N1` [Compound 380, (E)-3-(4-chlorophenyl)-N-(((3S,5S)-1-(2,2-diphenylethyl)-2-oxo-3-(2-(pyrrolidin-1-yl)ethyl)-1,4-diazepan-5-yl)methyl)acrylamide], the negative-log IC50 (pIC50) was above 7.00.

With `CC(C)NCC[C@@H]1N[C@H](CNC(=O)/C=C/c2ccc(Cl)cc2)CCN(CC(c2ccccc2)c2ccccc2)C1=O` [Compound 381, (E)-3-(4-chlorophenyl)-N-(((3S,5S)-1-(2,2-diphenylethyl)-3-(2-(isopropylamino)ethyl)-2-oxo-1,4-diazepan-5-yl)methyl)acrylamide], the pIC50 is above 7.00.

For `CC(C)NCC[C@@H]1N[C@H](CNC(=O)c2ccc3ccccc3c2)CCN(CC(c2ccccc2)c2ccccc2)C1=O` [Compound 382, N-(((3S,5S)-1-(2,2-diphenylethyl)-3-(2-(isopropylamino)ethyl)-2-oxo-1,4-diazepan-5-yl)methyl)-2-naphthamide], the pIC50 was above 6.00.

In the case of `CC(C)NCC[C@@H]1N[C@H](CNC(=O)c2ccc(Cl)c(Cl)c2)CCN(CC(c2ccccc2)c2ccccc2)C1=O` [Compound 383, 3,4-dichloro-N-(((3S,5S)-1-(2,2-diphenylethyl)-3-(2-(isopropylamino)ethyl)-2-oxo-1,4-diazepan-5-yl)methyl)benzamide], the negative logarithm of the IC50 (pIC50) is above 6.00.

As to `CC1CCCC(C)C1CN1CC[C@@H](CNC(=O)c2ccc3ccccc3c2)N[C@@H](CCCN)C1=O` (stereo partly drawn) [Compound 384, N-(((3S,5S)-3-(3-aminopropyl)-1-((2,6-dimethylcyclohexyl)methyl)-2-oxo-1,4-diazepan-5-yl)methyl)-2-naphthamide], the negative-log IC50 (pIC50) was above 5.00.

Take `CC[C@H](CN1CC[C@@H](CNC(=O)c2ccc3ccccc3c2)N[C@@H](CCCN)C1=O)c1ccccc1` [Compound 385, N-(((3S,5S)-3-(3-aminopropyl)-2-oxo-1-((S)-2-phenylbutyl)-1,4-diazepan-5-yl)methyl)-2-naphthamide]: the negative logarithm of the IC50 (pIC50) is above 6.00.

With `CC1CC(C)CC(CN2CC[C@@H](CNC(=O)c3ccc(Cl)c(Cl)c3)N[C@@H](CCN3CCCCC3)C2=O)C1` (stereo partly drawn) [Compound 386, 3,4-dichloro-N-(((3S,5S)-1-((3,5-dimethylcyclohexyl)methyl)-2-oxo-3-(2-(piperidin-1-yl)ethyl)-1,4-diazepan-5-yl)methyl)benzamide], the pIC50 is above 7.00.

As for `CC1CC(C)CC(CN2CC[C@@H](CNC(=O)c3ccc(Cl)c(Cl)c3)N[C@@H](CCNC(C)C)C2=O)C1` (stereo partly drawn) [Compound 387, 3,4-dichloro-N-(((3S,5S)-1-((3,5-dimethylcyclohexyl)methyl)-3-(2-(isopropylamino)ethyl)-2-oxo-1,4-diazepan-5-yl)methyl)benzamide], the negative-log IC50 (pIC50) is above 6.00.

As to `CC(C)C(CN1CC[C@@H](CNC(=O)c2ccc3ccccc3c2)N[C@@H](CCN)C1=O)c1ccccc1` (stereo partly drawn) [Compound 388, N-(((3S,5S)-3-(2-aminoethyl)-1-(3-methyl-2-phenylbutyl)-2-oxo-1,4-diazepan-5-yl)methyl)-2-naphthamide], the pIC50 is above 5.00.

On to `CC[C@H](CN1CC[C@@H](CNC(=O)c2ccc3ccccc3c2)N[C@@H](CCN)C1=O)c1ccccc1` [Compound 389, N-(((3S,5S)-3-(2-aminoethyl)-2-oxo-1-((S)-2-phenylbutyl)-1,4-diazepan-5-yl)methyl)-2-naphthamide], for which the pIC50 is above 6.00.

Turning to `CC[C@@H](CN1CC[C@@H](CNC(=O)c2ccc3ccccc3c2)N[C@@H](CCCN)C1=O)c1ccccc1` [Compound 390, N-(((3S,5S)-3-(3-aminopropyl)-2-oxo-1-((R)-2-phenylbutyl)-1,4-diazepan-5-yl)methyl)-2-naphthamide], the negative logarithm of the IC50 (pIC50) is above 5.00.

With `O=C(CCc1ccc(Cl)cc1)NC[C@@H]1CCN(CC(c2ccccc2)c2ccccc2)C(=O)[C@H](CCN2CCCCC2)N1` [Compound 391, 3-(4-chlorophenyl)-N-(((3S,5S)-1-(2,2-diphenylethyl)-2-oxo-3-(2-(piperidin-1-yl)ethyl)-1,4-diazepan-5-yl)methyl)propanamide], the negative logarithm of the IC50 (pIC50) is above 7.00.

`NCC[C@@H]1N[C@H](CNC(=O)CCc2ccc(Cl)cc2)CCN(CC(c2ccccc2)c2ccccc2)C1=O` [Compound 392, N-(((3S,5S)-3-(2-aminoethyl)-1-(2,2-diphenylethyl)-2-oxo-1,4-diazepan-5-yl)methyl)-3-(4-chlorophenyl)propanamide]: the negative-log IC50 (pIC50) is above 5.00.

On to `O=C(/C=C/c1ccc(Cl)cc1)NC[C@@H]1CCN(CC(c2ccccc2)c2ccccc2)C(=O)[C@H](CNC(=O)c2ccccn2)N1` [Compound 393, N-(((2S,7S)-7-(((E)-3-(4-chlorophenyl)acrylamido)methyl)-4-(2,2-diphenylethyl)-3-oxo-1,4-diazepan-2-yl)methyl)picolinamide], for which the negative logarithm of the IC50 (pIC50) was above 5.00.

In the case of `CC(C)[C@@H](CN1CC[C@@H](CNC(=O)c2ccc3ccccc3c2)N[C@@H](CCN2CCCCC2)C1=O)c1ccccc1` [Compound 394, N-(((3S,5S)-1-((R)-3-methyl-2-phenylbutyl)-2-oxo-3-(2-(piperidin-1-yl)ethyl)-1,4-diazepan-5-yl)methyl)-2-naphthamide], the negative-log IC50 (pIC50) is above 6.00.

`CC(C)[C@H](CN1CC[C@@H](CNC(=O)c2ccc3ccccc3c2)N[C@@H](CCN2CCCCC2)C1=O)c1ccccc1` [Compound 395, N-(((3S,5S)-1-((S)-3-methyl-2-phenylbutyl)-2-oxo-3-(2-(piperidin-1-yl)ethyl)-1,4-diazepan-5-yl)methyl)-2-naphthamide]: the negative-log IC50 (pIC50) is above 7.00.

In general, pIC50 refers to the negative decadic logarithm of the IC50, by convention in mol/L.
